36 molecules from ChEMBL document CHEMBL3351770, “Synthesis, antioxidant and cytoprotective evaluation of potential antiatherogenic phenolic hydrazones. A structure-activity relationship insight” (Bioorg Med Chem, 2014) can be followed below.

The IC50 is the concentration needed to halve the response being measured.

Each structure is given as a SMILES string.

The nature of series [1]: Cytoprotection in mouse CRL2181 cells assessed as reduction in UV-oxidized LDL-induced cytotoxicity by measuring cell viability at 1 uM after 24 hrs by MTT assay relative to untreated control. It is filed as functional.
The nature of series [2]: Antioxidant activity assessed as reduction in mouse CRL2181 cells-mediated human LDL oxidation by measuring TBARS level at 1 uM after 18 hrs. Format: physicochemical, cell-based. The conditions noted are these: read-out: Activity.
Series [3] in a line: Cytoprotection in mouse CRL2181 cells assessed as reduction in UV-oxidized LDL-induced cytotoxicity by measuring cell viability at 10 uM after 24 hrs by MTT assay relative to untreated control. Format: functional.
Series [4] is described as follows: Antioxidant activity assessed as DPPH radical scavenging activity by UV-Visible spectrophotometry. Format: physicochemical. A general note: Loss of DPPH colour is used to gauge radical scavenging.
Series [5] in a line: Antioxidant activity assessed as reduction in mouse CRL2181 cells-mediated human LDL oxidation by measuring TBARS level at 10 uM after 18 hrs. It is filed as physicochemical, cell-based. Also on record: scale not given: the % may be the effect or the level left.
Series [6] in a line: Antioxidant activity assessed as superoxide anion radical scavenging activity at 10 uM by PMS-NADH-NBT system based spectrophotometry. It is filed as physicochemical.

As to `COc1cc(/C=N/Nc2nncc3ccccc23)cc(OC)c1O`, the figures for the Activity in series [1], in series [3] and in series [5] were 46%, 66% and 4%, respectively. Also, the inhibition at 1 µM in series [2] was 38%. Moreover, the IC50 in series [4] amounted to 28 µM.

Turning to `COc1cc(/C=N/NC(=O)OCc2ccccc2)cc(OC)c1O`, the results for the Activity in series [1], in series [3] and in series [5] were 45%, 69% and 3%, respectively. In series [2], the inhibition at 1 µM was 38%. Also, in series [4], the IC50 worked out at 60.5 µM.

As for `COc1cc(/C=N/Nc2nc3ccccc3s2)cc(OC)c1O`, the Activity in series [1] was determined as 39%; in series [3], 55%; in series [5], 3%; in series [6], 35%. Moreover, in series [2], the inhibition at 1 µM was determined as 36%.

As to `COc1cc(/C=N/NC(=O)c2ccncc2)cc(OC)c1O`, the Activity in series [1] is 34%; in series [3], 65%; in series [5] it was 7%. In series [2], the inhibition at 1 µM was 48%. Also, the IC50 in series [4] was 17 µM.

Take `COc1cc(/C=N/Nc2nc3ccccc3s2)ccc1O`: the values for the Activity in series [1], in series [3] and in series [5] were 44%, 61% and 7%, respectively. For the same molecule, the inhibition at 1 µM in series [2] turned out to be 65%.

`COc1cc(/C=N/NC(=O)c2ccncc2)cc(OC)c1OC`: the Activity in series [1] is listed as 4%; in series [3] it was 4%; in series [5], 94%. Further, the inhibition at 1 µM in series [2] turned out to be 95%. Besides, the IC50 in series [4] was over 1000 µM.

For `COc1cc(/C=N/N2C(=O)CSC2=S)ccc1O`, the Activity in series [1] was 34%; in series [3], 72%; in series [5] it was 5%. The inhibition at 1 µM in series [2] was 66%. Also, the IC50 in series [4] amounted to 12.9 µM.

In the case of `COc1cc(/C=N/Nc2nncc3ccccc23)cc(OC)c1OC.Cl`, the Activity in series [1] stood at 6%; in series [3], 5%; in series [5], 93%. For the same molecule, the inhibition at 1 µM in series [2] stood at 96%. In series [4], the IC50 was determined as 40.2 µM.

As for `COc1cc(/C=N/Nc2nncc3ccccc23)cc(O)c1O.Cl`, the Activity in series [1] was 69%; in series [3], 97%; in series [5], 3%; in series [6], 36.7%. For the same molecule, the inhibition at 1 µM in series [2] was found to be 27%.

For `COc1cc(/C=N/Nc2nncc3ccccc23)ccc1O.Cl`, the Activity in series [1] is 24%; in series [3], 100%; in series [5], 4%. For the same molecule, in series [2], the inhibition at 1 µM was found to be 46%. For the same molecule, the IC50 in series [4] was found to be 19.9 µM.

On to `Cl.Oc1ccc(/C=N/Nc2nncc3ccccc23)cc1O`, for which the Activity in series [1] came out at 34%; in series [3], 72%; in series [5], 3%. Besides, in series [2], the inhibition at 1 µM came to 51%. Besides, the IC50 in series [4] turned out to be 6.7 µM.

As for `COc1cc(/C=N/NC(=O)c2ccncc2)cc(O)c1O`, the Activity was 41% in series [1], 80% in series [3] and 8% in series [5]. For the same molecule, the inhibition at 1 µM in series [2] turned out to be 59%. Further, the IC50 in series [4] was found to be 18.4 µM.

Consider `O=C(N/N=C/c1ccc(O)c(O)c1)c1ccncc1`, for which the figures for the Activity in series [1], in series [3] and in series [5] were 84%, 101% and 4%, respectively. Further, the inhibition at 1 µM in series [2] was 19%. Further, the IC50 in series [4] came to 6.1 µM.

With `COc1cc(/C=N/NC(=O)c2ccncc2)c(O)cc1O`, the Activity was 18% in series [1], 20% in series [3] and 82% in series [5]. The inhibition at 1 µM in series [2] was found to be 87%. Besides, the IC50 in series [4] turned out to be 15.3 µM.

In the case of `COc1cc(/C=N/NC(=O)OCc2ccccc2)cc(OC)c1OC`, the results for the Activity in series [1], in series [3] and in series [5] were 5%, 4% and 100%, respectively. Moreover, in series [2], the inhibition at 1 µM was found to be 95%. Further, in series [4], the IC50 is over 1000 µM.

As to `COc1cc(/C=N/NC(=O)OCc2ccccc2)cc(O)c1O`, the Activity in series [1] is reported as 34%; in series [3], 57%; in series [5], 2%; in series [6] it was 41.4%. In series [2], the inhibition at 1 µM came to 17%. Also, the IC50 in series [4] is 21.3 µM.

`COc1cc(/C=N/NC(=O)OCc2ccccc2)ccc1O`: the Activity is on record as 73% in series [1], 73% in series [3] and 36% in series [5]. In addition, the inhibition at 1 µM in series [2] came to 75%. In series [4], the IC50 stood at 39.7 µM.

Take `O=C(N/N=C/c1ccc(O)c(O)c1)OCc1ccccc1`: the Activity came out at 48% in series [1], 84% in series [3] and 6% in series [5]. Besides, the inhibition at 1 µM in series [2] stood at 27%. For the same molecule, the IC50 in series [4] amounted to 7.3 µM.

Turning to `O=C(N/N=C/c1ccccc1O)OCc1ccccc1`, the figures for the Activity in series [1], in series [3] and in series [5] were 24%, 34% and 104%, respectively. The inhibition at 1 µM in series [2] worked out at 106%. For the same molecule, in series [4], the IC50 was over 1000 µM.

In the case of `COc1cc(/C=N/NC(=O)OCc2ccccc2)c(O)cc1O`, the Activity in series [1] is recorded as 43%; in series [3], 79%; in series [5], 6%. Further, in series [2], the inhibition at 1 µM came to 74%. Besides, the IC50 in series [4] is 13.5 µM.

`COc1cc(/C=N/N(C)C(=O)OCc2ccccc2)cc(OC)c1O.Cl`: the Activity worked out at 55% in series [1], 64% in series [3] and 5% in series [5]. Further, the inhibition at 1 µM in series [2] amounted to 10%. The IC50 in series [4] was determined as 119 µM.

Take `COc1cc(/C=N/N(C)C(=O)OCc2ccccc2)cc(OC)c1OC.Cl`: the Activity in series [1] came to 6%; in series [3] it was 6%; in series [5] it was 90%. Besides, the inhibition at 1 µM in series [2] stood at 98%. For the same molecule, in series [4], the IC50 is over 7.1 µM.

Consider `COc1cc(/C=N/N(C)C(=O)OCc2ccccc2)ccc1O.Cl`, for which the values for the Activity in series [1], in series [3] and in series [5] were 41%, 71% and 5%, respectively. Moreover, the inhibition at 1 µM in series [2] amounted to 58%. Besides, the IC50 in series [4] is 26.2 µM.

With `COc1cc(/C=N/Nc2nc3ccccc3s2)cc(OC)c1OC`, the Activity in series [1] was determined as 4%; in series [3], 57%; in series [5] it was 14%; in series [6], 34%. The inhibition at 1 µM in series [2] came to 100%. Moreover, in series [4], the IC50 is 43.1 µM.

For `Oc1ccc(/C=N/Nc2nc3ccccc3s2)cc1O`, the Activity in series [1] is 33%; in series [3], 57%; in series [5], 7%; in series [6], 41.7%. The inhibition at 1 µM in series [2] was 44%.

For the molecule `COc1cc(/C=N/Nc2nc3ccccc3s2)cc(O)c1O`, the Activity in series [1] is recorded as 38%; in series [3] it was 54%; in series [5], 7%. In series [2], the inhibition at 1 µM stood at 56%. Further, the IC50 in series [4] turned out to be 6.8 µM.

For `COc1cc(/C=N/N(C)c2nc3ccccc3s2)cc(OC)c1O`, the Activity in series [1] is given as 107%; in series [3], 110%; in series [5], 3%; in series [6], 43.3%. Besides, in series [2], the inhibition at 1 µM amounted to 5%.

Consider `COc1cc(/C=N/N(C)c2nc3ccccc3s2)cc(OC)c1OC`, for which the Activity in series [1] is given as 7%; in series [3] it was 7%; in series [5] it was 82%. For the same molecule, the inhibition at 1 µM in series [2] was found to be 84%. Moreover, in series [4], the IC50 was over 1000 µM.

Take `COc1cc(/C=N/N(C)c2nc3ccccc3s2)ccc1O`: the Activity in series [1] stood at 96%; in series [3] it was 96%; in series [5], 9%. Further, the inhibition at 1 µM in series [2] is 20%. The IC50 in series [4] was 26.6 µM.

As for `COc1cc(/C=N/N2C(=O)CSC2=S)cc(OC)c1O`, the Activity in series [1] is on record as 53%; in series [3] it was 85%; in series [5] it was 5%. In series [2], the inhibition at 1 µM worked out at 59%. Moreover, in series [4], the IC50 turned out to be 11.8 µM.

As for `O=C1CSC(=S)N1/N=C/c1ccccc1O`, the results for the Activity in series [1], in series [3] and in series [5] were 26%, 87% and 5%, respectively. Further, the inhibition at 1 µM in series [2] turned out to be 79%. In addition, in series [4], the IC50 turned out to be 13.1 µM.

On to `Cc1c(C)c2c(c(C)c1O)CC[C@@](C)(CCC[C@H](C)CCC[C@H](C)CCCC(C)C)O2` [ALPHA-TOCOPHEROL], for which the inhibition at 1 µM in series [2] amounted to 78%. In addition, the Activity worked out at 47% in series [3] and 55% in series [5].

Regarding `O=C(/C=C/c1ccc(O)c(O)c1)O[C@@H]1C[C@](O)(C(=O)O)C[C@@H](O)[C@H]1O` [CHLOROGENIC ACID], the Activity in series [6] is on record as 35.5%.

Consider `COc1cc(/C=N/NC(=O)c2ccncc2)ccc1O` [FTIVAZIDE], for which the figures for the Activity in series [1], in series [3] and in series [5] were 36%, 63% and 95%, respectively. Also, the inhibition at 1 µM in series [2] was 90%. The IC50 in series [4] was 86 µM.

As to `O=C(N/N=C/c1ccccc1O)c1ccncc1` [SALINAZID], the Activity was determined as 20% in series [1], 24% in series [3] and 31% in series [5]. For the same molecule, in series [2], the inhibition at 1 µM was found to be 75%. The IC50 in series [4] is over 1000 µM.

`Cc1c(C)c2c(c(C)c1O)CCC(C)(C(=O)O)O2` (stereo unspecified) [TROLOX]: the Activity was 50% in series [1], 76% in series [3], 33% in series [5] and 22.2% in series [6]. Also, the inhibition at 1 µM in series [2] was 69%. The IC50 in series [4] stood at 20.1 µM.
